# ChEMBL document CHEMBL4152237, “Identification of novel β-lactams and pyrrolidinone derivatives as selective Histamine-3 receptor (H3R) modulators as possible anti-obesity agents” (Eur J Med Chem, 2018)
# pEC50: −log10 of the molar value. Active and inactive are the calls of the source. Unless noted, the rule behind the calls is not given here.
# Columns and labels:
# HEK-293T = assay: Cytotoxicity against HEK293T cells assessed as reduction in cell viability at 1 to 10 uM after 24 hrs by XTT assay; format: cell-based; conditions: human
# Histamine H3 receptor [1] = molecular target: T1, Histamine H3 receptor (Homo sapiens, UniProt Q9Y5N1); assay: Agonist activity at human H3R expressed in HEK293 cells harboring glosensor-22F cAMP plasmid DNA assessed as inhibition of forskolin-stimulated cAMP accumulation at 1 uM preincubated with cells followed by forskolin addition measured after 10 mins in presence of H3R antagonist GSK334429 by luminescence assay; format: functional, cell-based
# T1 sequence (Q9Y5N1 whole entry): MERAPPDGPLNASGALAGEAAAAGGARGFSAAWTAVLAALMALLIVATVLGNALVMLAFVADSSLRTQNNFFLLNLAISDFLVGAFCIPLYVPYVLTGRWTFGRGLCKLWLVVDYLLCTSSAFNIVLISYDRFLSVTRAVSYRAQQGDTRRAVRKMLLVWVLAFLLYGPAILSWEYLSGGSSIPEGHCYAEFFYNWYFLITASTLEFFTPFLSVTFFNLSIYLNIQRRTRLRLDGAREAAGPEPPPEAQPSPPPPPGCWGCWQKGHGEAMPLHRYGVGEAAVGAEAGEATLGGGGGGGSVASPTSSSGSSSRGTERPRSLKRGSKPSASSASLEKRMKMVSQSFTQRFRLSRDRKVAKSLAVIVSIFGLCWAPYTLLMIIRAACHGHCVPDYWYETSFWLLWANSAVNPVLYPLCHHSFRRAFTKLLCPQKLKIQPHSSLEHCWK
# [2] = molecular target: Histamine H1 receptor (Homo sapiens) (UniProt P35367); assay: Agonist activity at H1R (unknown origin) expressed in HEK293 cells harboring luc2P/NFAT-RE plasmid at 10 uM after 6 to 8 hrs by luciferase reporter gene assay; format: functional, cell-based
# Histamine H1 receptor (Homo sapiens), sequence (P35367 whole entry): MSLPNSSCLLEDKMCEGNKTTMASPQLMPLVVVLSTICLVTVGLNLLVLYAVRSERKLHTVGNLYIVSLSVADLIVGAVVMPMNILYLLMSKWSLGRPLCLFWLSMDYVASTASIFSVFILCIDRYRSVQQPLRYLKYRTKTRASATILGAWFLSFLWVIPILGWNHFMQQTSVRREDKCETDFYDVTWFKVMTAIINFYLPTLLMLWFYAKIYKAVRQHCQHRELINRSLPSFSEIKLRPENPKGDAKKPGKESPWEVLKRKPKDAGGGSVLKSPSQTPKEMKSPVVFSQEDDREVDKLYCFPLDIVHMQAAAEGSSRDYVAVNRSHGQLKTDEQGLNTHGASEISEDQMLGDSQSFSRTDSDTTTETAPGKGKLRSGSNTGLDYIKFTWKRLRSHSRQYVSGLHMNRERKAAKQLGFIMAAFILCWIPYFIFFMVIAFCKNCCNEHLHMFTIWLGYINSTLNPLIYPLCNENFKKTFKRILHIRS
# [3] = molecular target: T2, 5-hydroxytryptamine receptor 2C (Homo sapiens) (UniProt P28335); assay: Agonist activity at human 5-HT2C expressed in HEK293 cells harboring luc2P/NFAT-RE plasmid at 10 uM after 6 to 8 hrs by luciferase reporter gene assay; format: functional, cell-based
# T2 sequence (whole entry): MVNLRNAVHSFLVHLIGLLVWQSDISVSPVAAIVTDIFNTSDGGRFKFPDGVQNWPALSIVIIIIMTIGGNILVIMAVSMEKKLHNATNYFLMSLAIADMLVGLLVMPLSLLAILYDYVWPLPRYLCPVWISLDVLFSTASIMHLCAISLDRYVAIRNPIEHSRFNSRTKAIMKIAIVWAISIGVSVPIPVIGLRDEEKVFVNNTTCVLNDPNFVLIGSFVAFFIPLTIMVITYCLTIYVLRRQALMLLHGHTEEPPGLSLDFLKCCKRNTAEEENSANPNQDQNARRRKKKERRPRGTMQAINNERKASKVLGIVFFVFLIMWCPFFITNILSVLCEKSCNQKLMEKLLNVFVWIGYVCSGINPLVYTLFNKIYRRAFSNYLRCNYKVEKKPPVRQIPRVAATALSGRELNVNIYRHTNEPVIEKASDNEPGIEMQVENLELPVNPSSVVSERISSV
# [4] = molecular target: Histamine H4 receptor (Homo sapiens) (UniProt Q9H3N8); assay: Agonist activity at H4R (unknown origin) expressed in HEK293 cells harboring glosensor-22F cAMP plasmid DNA assessed as inhibition of forskolin-stimulated cAMP accumulation at 10 uM preincubated with cells followed by forskolin addition measured after 10 mins by luminescence assay; format: functional, cell-based
# Histamine H4 receptor (Homo sapiens), sequence (Q9H3N8 whole entry): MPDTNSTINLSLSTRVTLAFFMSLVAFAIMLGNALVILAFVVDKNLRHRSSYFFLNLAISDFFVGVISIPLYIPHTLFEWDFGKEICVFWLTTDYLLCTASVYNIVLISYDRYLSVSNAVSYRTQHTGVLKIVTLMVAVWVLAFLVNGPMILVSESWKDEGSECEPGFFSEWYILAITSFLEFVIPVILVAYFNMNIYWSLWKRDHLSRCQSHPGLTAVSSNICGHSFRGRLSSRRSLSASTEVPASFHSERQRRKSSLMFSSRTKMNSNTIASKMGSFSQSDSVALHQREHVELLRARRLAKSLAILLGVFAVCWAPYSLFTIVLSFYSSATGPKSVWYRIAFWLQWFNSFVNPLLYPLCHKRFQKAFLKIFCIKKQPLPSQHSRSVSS
# [5] = molecular target: Histamine H1 receptor (Homo sapiens) (UniProt P35367); assay: Antagonist activity at H1R (unknown origin) expressed in HEK293 cells harboring luc2P/NFAT-RE plasmid at 10 uM after 6 to 8 hrs by luciferase reporter gene assay; format: functional, cell-based
# [6] = molecular target: Histamine H2 receptor (Homo sapiens) (UniProt P25021); assay: Antagonist activity at H2R (unknown origin) expressed in HEK293 cells harboring glosensor-22F cAMP plasmid DNA assessed as effect on forskolin-stimulated cAMP accumulation at 10 uM preincubated with cells followed by forskolin addition measured after 10 mins by luminescence assay; format: functional, cell-based
# Histamine H2 receptor (Homo sapiens), sequence (P25021 whole entry): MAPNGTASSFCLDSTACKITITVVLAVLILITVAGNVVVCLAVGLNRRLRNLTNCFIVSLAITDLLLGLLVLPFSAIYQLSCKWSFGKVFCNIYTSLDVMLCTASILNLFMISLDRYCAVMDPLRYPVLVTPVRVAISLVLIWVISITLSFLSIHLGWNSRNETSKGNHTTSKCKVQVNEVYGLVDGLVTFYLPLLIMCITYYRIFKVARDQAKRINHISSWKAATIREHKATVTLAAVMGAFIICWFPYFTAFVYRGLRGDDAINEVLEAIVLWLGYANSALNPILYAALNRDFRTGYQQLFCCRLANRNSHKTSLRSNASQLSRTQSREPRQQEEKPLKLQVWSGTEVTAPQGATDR
# [7] = molecular target: T2, 5-hydroxytryptamine receptor 2C (Homo sapiens); assay: Antagonist activity at human 5-HT2C expressed in HEK293 cells harboring luc2P/NFAT-RE plasmid at 10 uM after 6 to 8 hrs by luciferase reporter gene assay; format: functional, cell-based
# [8] = molecular target: Histamine H2 receptor (Homo sapiens) (UniProt P25021); assay: Agonist activity at H2R (unknown origin) expressed in HEK293 cells harboring glosensor-22F cAMP plasmid DNA assessed as inhibition of forskolin-stimulated cAMP accumulation at 10 uM preincubated with cells followed by forskolin addition measured after 10 mins by luminescence assay; format: functional, cell-based
# [9] = molecular target: Histamine H4 receptor (Homo sapiens) (UniProt Q9H3N8); assay: Antagonist activity at H4R (unknown origin) expressed in HEK293 cells harboring glosensor-22F cAMP plasmid DNA assessed as effect on forskolin-stimulated cAMP accumulation at 10 uM preincubated with cells followed by forskolin addition measured after 10 mins by luminescence assay; format: functional, cell-based
# Histamine H3 receptor [10] = molecular target: T1, Histamine H3 receptor; assay: Agonist activity at human H3R expressed in HEK293 cells harboring glosensor-22F cAMP plasmid DNA assessed as inhibition of forskolin-stimulated cAMP accumulation preincubated with cells followed by forskolin addition measured after 10 mins by luminescence assay; format: functional, cell-based; conditions: for pEC50: read-out: EC50; for EC50: read-out: pEC50 (converted)
# [11] = molecular target: Luciferin 4-monooxygenase (Photinus pyralis) (UniProt P08659); assay: Inhibition of firefly luciferase activity expressed in HEK293 cells assessed as reduction in forskolin-stimulated cAMP accumulation up to 10 uM preincubated with cells followed by forskolin addition measured after 10 mins by luminescence assay; format: cell-based
# Luciferin 4-monooxygenase (Photinus pyralis), sequence (P08659 whole entry): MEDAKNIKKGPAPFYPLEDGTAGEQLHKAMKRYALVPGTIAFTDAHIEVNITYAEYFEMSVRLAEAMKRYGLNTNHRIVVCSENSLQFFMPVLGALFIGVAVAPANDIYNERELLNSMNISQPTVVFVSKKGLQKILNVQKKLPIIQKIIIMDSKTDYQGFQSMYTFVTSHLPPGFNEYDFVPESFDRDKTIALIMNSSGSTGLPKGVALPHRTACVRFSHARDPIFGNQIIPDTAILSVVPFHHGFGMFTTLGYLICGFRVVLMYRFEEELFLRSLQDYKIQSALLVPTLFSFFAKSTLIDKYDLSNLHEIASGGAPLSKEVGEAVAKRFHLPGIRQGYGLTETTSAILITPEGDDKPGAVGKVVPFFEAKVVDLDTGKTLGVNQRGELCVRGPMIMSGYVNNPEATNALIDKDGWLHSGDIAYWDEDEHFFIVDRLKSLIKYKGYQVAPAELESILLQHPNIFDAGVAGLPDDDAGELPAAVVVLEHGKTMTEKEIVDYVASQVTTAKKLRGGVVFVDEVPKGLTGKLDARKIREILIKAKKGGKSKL
# Histamine H3 receptor [12] = molecular target: T1, Histamine H3 receptor; assay: Agonist activity at human H3R expressed in HEK293 cells harboring glosensor-22F cAMP plasmid DNA assessed as inhibition of forskolin-stimulated cAMP accumulation at 10 uM preincubated with cells followed by forskolin addition measured after 10 mins by luminescence assay relative to control; format: functional, cell-based
Structure (SMILES),Activity (HEK-293T),inhibition (Histamine H3 receptor [1]),Activity [2],Activity [3],inhibition [4],inhibition [5],inhibition [6],inhibition [7],inhibition [8],inhibition [9],pEC50 (Histamine H3 receptor [10]),inhibition [11],EC50 (Histamine H3 receptor [10]) [nM],inhibition (Histamine H3 receptor [12])
COc1cc(N2C(=O)C(=Cc3ccccc3)C2(C(=O)NC(C)(C)C)c2ccccc2)cc(OC)c1OC (stereo not given),Non-Toxic,inactive,inactive,inactive,inactive,inactive,inactive,inactive,inactive,inactive,10.00,inactive,–,–
N=C(N)SCCc1cnc[nH]1,–,–,–,–,–,–,–,–,–,–,10.10,–,–,–
COc1cc(NC2(c3ccccc3Cl)C(=O)N(C(C)(C)C)C(=O)/C2=C/c2ccccc2)cc(OC)c1OC (stereo not given),Non-Toxic,inactive,inactive,inactive,inactive,inactive,inactive,inactive,inactive,inactive,6.73,inactive,–,–
COc1ccc(NC2(c3ccc(F)cc3)C(=O)N(C(C)(C)C)C(=O)/C2=C/c2ccccc2)cc1 (stereo not given),Non-Toxic,inactive,inactive,inactive,inactive,inactive,inactive,inactive,inactive,inactive,8.89,inactive,1.23,–
COc1ccc(N2C(=O)C(=Cc3ccccc3)C2(C(=O)NC2CCCCC2)c2cc(F)c(F)c(F)c2)cc1 (stereo not given),Non-Toxic,inactive,inactive,inactive,inactive,inactive,inactive,inactive,inactive,inactive,10.00,inactive,–,–
COc1ccc(NC2(c3ccccc3)C(=O)N(C(C)(C)C)C(=O)/C2=C/c2ccccc2)cc1 (stereo not given),Non-Toxic,inactive,inactive,inactive,inactive,inactive,inactive,inactive,inactive,inactive,8.52,inactive,22.9,–
COc1cc(NC2(c3ccc(Br)cc3)C(=O)N(C(C)(C)C)C(=O)/C2=C/c2ccccc2)cc(OC)c1OC (stereo not given),Non-Toxic,inactive,inactive,inactive,inactive,inactive,inactive,inactive,inactive,inactive,8.24,inactive,–,–
COc1ccc(NC2(c3ccc(Br)cc3)C(=O)N(C(C)(C)C)C(=O)/C2=C/c2ccccc2)cc1OC (stereo not given),Non-Toxic,inactive,inactive,inactive,inactive,inactive,inactive,inactive,inactive,inactive,8.89,inactive,–,–
COC1=CC2(C=C(OC)C1=O)C(c1ccccc1)=C(c1ccc(C(F)(F)F)cc1)C(=O)N2C(C(=O)NC1CCCCC1)c1ccc(OC)c(OC)c1OC (stereo not given),Non-Toxic,inactive,inactive,inactive,inactive,inactive,inactive,inactive,inactive,inactive,8.17,inactive,–,–
O=C1C=C[C@]23C(c4ccccc4)=CC(=O)N2[C@H](c2ccc(Cl)cc2)C(=O)N[C@@H]3C1,–,–,–,inactive,–,–,–,–,–,–,–,–,–,inactive
COc1ccc(NC2(c3ccccc3)C(=O)N(C3CCCCC3)C(=O)/C2=C/c2ccccc2)cc1OC (stereo not given),–,–,–,inactive,–,–,–,–,–,–,–,–,–,inactive
COC1=CC2(C=C(OC)C1=O)C(c1ccccc1)=C(c1cccc3c1OCO3)C(=O)N2C(C(=O)NC1CCCCC1)c1cc(OC)c(OC)c(OC)c1 (stereo not given),–,–,–,inactive,–,–,–,–,–,–,–,–,–,inactive
COc1ccc(NC2(c3cc(F)c(F)c(F)c3)C(=O)N(C(C)(C)C)C(=O)/C2=C/c2ccccc2)cc1 (stereo not given),–,–,–,inactive,–,–,–,–,–,–,–,–,–,inactive
O=C1C=CC2(C=C1)C(c1ccccc1)=C(I)C(=O)N2C(C(=O)NC1CCCCC1)c1cccc([N+](=O)[O-])c1 (stereo not given),–,–,–,inactive,–,–,–,–,–,–,–,–,–,inactive
Cc1ccc(C(C(=O)NC(C)(C)C)N2C(=O)C(I)=C(c3ccccc3)C23C=CC(=O)C=C3)cc1 (stereo not given),–,–,–,inactive,–,–,–,–,–,–,–,–,–,inactive
O=C1C=C[C@]23C(c4ccccc4)=CC(=O)N2[C@H](c2cccc(OC(F)(F)F)c2)C(=O)N[C@@H]3C1,–,–,–,inactive,–,–,–,–,–,–,–,–,–,inactive
COc1cc(OC)c(C(C(=O)NC2CCCCC2)N2C(=O)C(I)=C(c3ccccc3)C23C=CC(=O)C=C3)cc1OC (stereo not given),–,–,–,inactive,–,–,–,–,–,–,–,–,–,inactive
O=C1C=C[C@]23C(c4ccccc4)=CC(=O)N2[C@H](c2ccc(Br)cc2)C(=O)N[C@@H]3C1,–,–,–,inactive,–,–,–,–,–,–,–,–,–,inactive
COc1ccc(NC2(c3cccc(Cl)c3)C(=O)N(C(C)(C)C)C(=O)/C2=C/c2ccccc2)cc1 (stereo not given),–,–,–,inactive,–,–,–,–,–,–,–,–,–,inactive
COc1ccc(N2C(=O)/C(=C\c3ccccc3)C2(C(=O)NC(C)(C)C)c2ccc(F)cc2)cc1 (stereo not given),–,–,–,inactive,–,–,–,–,–,–,–,–,–,inactive
Cc1cc(C(C(=O)NC(C)(C)C)N2C(=O)C(I)=C(c3ccccc3)C23C=CC(=O)C=C3)cc(C)c1O (stereo not given),–,–,–,inactive,–,–,–,–,–,–,–,–,–,inactive
COc1ccccc1[C@@H]1C(=O)N[C@@H]2CC(=O)C=C[C@@]23C(c2ccccc2)=CC(=O)N13,–,–,–,inactive,–,–,–,–,–,–,–,–,–,inactive
COc1cc(C(C(=O)NC2CCCCC2)N2C(=O)C(I)=C(c3ccccc3)C23C=CC(=O)C=C3)cc(OC)c1OC (stereo not given),–,–,–,inactive,–,–,–,–,–,–,–,–,–,inactive
COc1ccc(NC2(c3ccc(Br)cc3)C(=O)N(C3CCCCC3)C(=O)/C2=C/c2ccccc2)cc1OC (stereo not given),–,–,–,inactive,–,–,–,–,–,–,–,–,–,inactive
COc1cc(OC)c(C(C(=O)NC2CCCCC2)N2C(=O)C(c3ccc(CO)cc3)=C(c3ccccc3)C23C=CC(=O)C=C3)cc1OC (stereo not given),–,–,–,inactive,–,–,–,–,–,–,–,–,–,inactive
COc1ccc(C2(Nc3cc(OC)c(OC)c(OC)c3)C(=O)N(C(C)(C)C)C(=O)/C2=C/c2ccccc2)cc1 (stereo not given),–,–,–,inactive,–,–,–,–,–,–,–,–,–,inactive
COC1=CC2(C=C(OC)C1=O)C(c1ccccc1)=C(c1ccc(OC)cc1)C(=O)N2C(C(=O)NC1CCCCC1)c1cc(OC)c(OC)c(OC)c1 (stereo not given),–,–,–,inactive,–,–,–,–,–,–,–,–,–,inactive
